Measured values taken from PubChem BioAssay (NCI).
Where “and” joins values, the source holds several entries; their conditions need not be identical. Equal entries are not always repeated.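 A five-concentration, 48-hour dose response in 96-well plates underlies each endpoint, interpolated linearly between surrounding concentrations. Abbreviation: GI50, concentration required for 50% inhibition of growth. TGI is the concentration that stops growth completely.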

Tests used:
Assay in all cases: NCI anticancer screen, dose series, 48 h
K-562 leukemia = test system: K-562 leukemia
LOX IMVI melanoma = test system: LOX IMVI melanoma
HCT-116 colon = test system: HCT-116 colon
A498 renal = test system: A498 renal
PC-3 prostate = test system: PC-3 prostate
EKVX NSCLC = test system: EKVX NSCLC
NCI/ADR-RES ovarian = test system: NCI/ADR-RES ovarian
NCI-H226 lung = test system: NCI-H226 lung
M19-MEL melanoma = test system: M19-MEL melanoma
DU-145 prostate = test system: DU-145 prostate

COc1cc(C2S/C(=C/c3ccccc3)C(=O)N2c2ccc(NC(C)=O)cc2)cc(OC)c1OC (centres undefined)
TGI (K-562 leukemia): > 100 µM | TGI (LOX IMVI melanoma): 63.7 µM | TGI (HCT-116 colon): 26.1 µM | TGI (A498 renal): 67.3 µM | TGI (PC-3 prostate): 48.1 µM | TGI (EKVX NSCLC): 38.4 µM | TGI (NCI/ADR-RES ovarian): 76.2 µM

COc1ccc(-c2csc(=Nc3ccccc3)n2CCCN(C)C)cc1
TGI (NCI-H226 lung): 38.1 µM | TGI (A498 renal): 49.2 µM | TGI (PC-3 prostate): 30.2 µM | TGI (NCI/ADR-RES ovarian): 54.3 µM

COc1cc([C@@H]2c3cc4c(c(O)c3C[C@H]3COC(=O)[C@@H]32)OCO4)cc(OC)c1OC
GI50 (K-562 leukemia): 0.141 µM | GI50 (NCI-H226 lung): 0.364 µM | TGI (NCI-H226 lung): 150 µM and 19.6 µM | GI50 (LOX IMVI melanoma): 0.334 µM | GI50 (HCT-116 colon): 0.0589 µM | GI50 (M19-MEL melanoma): 0.000137 µM | TGI (A498 renal): > 100 µM | GI50 (PC-3 prostate): 0.0428 µM and 0.161 µM | TGI (PC-3 prostate): > 241 µM

Cc1nc2c(c(=O)[nH]1)S/C(=C(/C#N)c1nc3ccccc3[nH]1)N2c1ccccc1
TGI (K-562 leukemia): > 100 µM | TGI (HCT-116 colon): > 100 µM | TGI (M19-MEL melanoma): > 100 µM | TGI (A498 renal): > 100 µM | TGI (EKVX NSCLC): > 100 µM

C=C(C)C(=O)O[C@H]1CC2=C[C@@H](C[C@@]3(C)O[C@@H]3[C@H]3OC(=O)C(=C)[C@@H]31)OC2=O
GI50 (K-562 leukemia): 1.21 µM | TGI (K-562 leukemia): 47.6 µM | TGI (NCI-H226 lung): 30.7 µM | TGI (LOX IMVI melanoma): 1.29 µM | GI50 (HCT-116 colon): 1.4 µM | TGI (HCT-116 colon): 4.61 µM | TGI (M19-MEL melanoma): 6.52 µM | TGI (A498 renal): 9.06 µM | TGI (EKVX NSCLC): 4.82 µM | TGI (NCI/ADR-RES ovarian): 5.18 µM

NC(CSCc1ccc(I)cc1)C(=O)O (centres undefined)
TGI (K-562 leukemia): > 100 µM | TGI (NCI-H226 lung): > 100 µM | TGI (LOX IMVI melanoma): > 100 µM | TGI (HCT-116 colon): > 100 µM | TGI (A498 renal): > 100 µM | TGI (PC-3 prostate): > 100 µM | TGI (EKVX NSCLC): > 100 µM | TGI (NCI/ADR-RES ovarian): > 100 µM | TGI (DU-145 prostate): > 100 µM

CC(=O)N1N=C(c2ccc3ccccc3c2O)CC1c1cccs1 (centres undefined)
TGI (K-562 leukemia): 22.5 µM | TGI (NCI-H226 lung): > 100 µM | TGI (HCT-116 colon): > 100 µM | TGI (A498 renal): 44.5 µM | TGI (PC-3 prostate): > 100 µM | TGI (NCI/ADR-RES ovarian): 39.5 µM | TGI (DU-145 prostate): > 100 µM

CCOC1=NC(C(F)(F)F)(C(F)(F)F)N=C(N2CCOCC2)O1
TGI (LOX IMVI melanoma): > 100 µM | TGI (HCT-116 colon): > 100 µM | TGI (PC-3 prostate): > 100 µM | TGI (EKVX NSCLC): > 100 µM | TGI (NCI/ADR-RES ovarian): > 100 µM | TGI (DU-145 prostate): > 100 µM

COc1nc2ccc(COc3ccc(C(=O)NC(CCC(=O)O)C(=O)O)cc3)cc2nc1OC (centres undefined)
TGI (K-562 leukemia): > 10 µM | TGI (NCI-H226 lung): > 10 µM | TGI (LOX IMVI melanoma): > 10 µM | TGI (PC-3 prostate): > 10 µM | TGI (EKVX NSCLC): > 10 µM | TGI (DU-145 prostate): > 10 µM

O=C1C(Cl)N(c2cccc(Cl)c2)C1c1c[nH]c2ccccc12 (centres undefined)
TGI (K-562 leukemia): > 100 µM | TGI (HCT-116 colon): > 100 µM | TGI (M19-MEL melanoma): > 100 µM | TGI (EKVX NSCLC): > 100 µM

c1ccc(N2N=C(c3cccc(Nc4ccncc4)c3)CC2c2ccc3c(c2)OCO3)cc1 (centres undefined)
GI50 (NCI-H226 lung): 2.07 µM | TGI (NCI-H226 lung): 5.05 µM | GI50 (LOX IMVI melanoma): 1.69 µM | TGI (LOX IMVI melanoma): 3.08 µM | GI50 (A498 renal): 1.24 µM | TGI (A498 renal): 5.58 µM | GI50 (EKVX NSCLC): 2.66 µM | TGI (EKVX NSCLC): 11 µM | GI50 (NCI/ADR-RES ovarian): 1.66 µM | TGI (NCI/ADR-RES ovarian): 3.6 µM | GI50 (DU-145 prostate): 1.85 µM | TGI (DU-145 prostate): 3.66 µM

NC(=S)N/N=C/c1nccc2ccccc12
TGI (K-562 leukemia): > 100 µM | TGI (LOX IMVI melanoma): 2.64 µM | TGI (HCT-116 colon): > 100 µM | TGI (M19-MEL melanoma): 3.41 µM | TGI (A498 renal): > 100 µM

CC[C@@H]1ON(C)[C@H]2CN(C)C(=O)[C@@H]12
TGI (K-562 leukemia): > 100 µM | TGI (NCI-H226 lung): > 100 µM | TGI (LOX IMVI melanoma): > 100 µM | TGI (HCT-116 colon): > 100 µM | TGI (PC-3 prostate): > 100 µM | TGI (NCI/ADR-RES ovarian): > 100 µM | TGI (DU-145 prostate): > 100 µM

COc1ccc2c(c1O)-c1cc(O)cc3c1[C@@H](C2)N(C)CC3
TGI (K-562 leukemia): 241 µM | TGI (NCI-H226 lung): 108 µM | TGI (LOX IMVI melanoma): 142 µM | TGI (HCT-116 colon): 49.9 µM | TGI (M19-MEL melanoma): 128 µM | TGI (A498 renal): 125 µM | TGI (EKVX NSCLC): 187 µM | TGI (NCI/ADR-RES ovarian): 227 µM
